Marks after values point to notes of the source that are not given here.
Experiments:
[1] = test system: formation of thrombus (rat arteriovenous bypass); experiment: Antithrombotic activity via intravenous administration, rat arteriovenous bypass cannula with thread; format: in vivo, male SD rats; settings: n = 10
Text: A cannula was composed of 3 segments. The middle segment has a length of 80 mm and an inner diameter of 3.5 mm. […] The pre-weighed, 60 mm in length thread was placed in the middle segment of the polyethylene tube. Both ends of the wider tube sheathed the un-narrowed ends of two polyethylene tubes respectively (0.5 mm of the thread was restrained by one of the segment to fix the thread). The cannula was filled with a heparin solution in normal saline (50 IU/kg) through the tip end by using an injector and was ready for use. 200-220 g male SD rats were anesthetized with 20% urethane solution (6 mL/kg, ip). Anesthetized rats were fixed in a supine position, and the left external jugular vein was separated and penetrated with a suture at the proximal and distal ends respectively, and the distal end was ligated. An incision was carefully made on the exposed left external jugular vein, and the tip end without thread-restraining of the bypass cannula prepared as described above was inserted into the proximal end of the open incision in the left external jugular vein. A precise amount of heparin in normal saline (50 IU/kg) was injected through the tip at the other end by using an injector. Then, the injector was replaced, and precise amount of drug was injected by the same way. At this moment, without removing the injector from the ethylene tube, the right common carotid artery was separated, and the proximal end was clipped by an artery clip. The right common carotid artery was penetrated with a suture at the proximal and distal ends respectively, and the distal end was ligated. An incision was carefully cut across the right common carotid artery near the artery clip. The injector was pulled out of the polyethylene tube through the tip, and the tip of the polyethylene tube was then inserted into the proximal end of the artery incision. Both ends of the bypass cannula were fixed to the artery or vein with #4 sutures. The artery clip was then removed to allow blood to flow from the artery to the vein through the bypass cannula. A rat arteriovenous bypass thrombolysis model was thus established. The process was timed from the beginning of circulation, the thread attached with thrombus was taken out from the bypass cannula after 15 minutes and accurately weighed. The difference in the mass of the thread before and after was determined as the wet weight of the thrombus, which was statistically analyzed and used to evaluate the in vivo antithrombotic activities of the compounds. The wet weight of the thrombus was expressed as average value and standard deviation (x±SD). The drug administration method is intravenous injection. The blank control was normal saline solution, and the dose was 1 mL/kg. The positive control was aspirin, and the dose was 9 mg/kg. The dose of compounds 5Aa-p of the present invention was 0.1 nmol/kg. The method was the same as in example 3. The drug administration method is intravenous injection. The blank control was normal saline solution, and the dose was 3 mL/kg. The positive control was aspirin, and the dose was 9 mg/kg.

[2] = test system: thrombus (rat arteriovenous bypass thrombolysis model); experiment: Thrombolytic activity via intravenous administration, rat arteriovenous bypass thrombolysis model; format: in vivo, male SD rats; settings: n = 10
Procedure: 200-220 g male SD rats were anesthetized with 20% urethane solution (6 mL/kg, ip). Anesthetized rats were fixed in a supine position, and the right common carotid artery was separated, clamped at the proximal end with an arterial clip, and penetrated with a suture at the proximal and distal ends, respectively. The suture at the distal end is clipped tightly by a hemostatic clamp at the skin/fur. Cannulation was performed at the distal end, the arterial clamp was loosened, and about 1 ml arterial blood was discharged into a 1 mL EP vial. 0.1 mL rat arterial blood was injected into a vertically fixed glass tube (15 mm in length, with an inner diameter of 2.5 mm and an outer diameter of 5.0 mm, sealed with a rubber stopper at the bottom), into which was immediately inserted a thrombus immobilization screw made of stainless steel. […] 40 min after the blood coagulated, the rubber stopper at the bottom of the glass tube was removed, the stem of the thrombus immobilization screw was fixed by forceps, and the thrombus-wrapped thrombus immobilization screw was carefully taken out from the glass tube and precisely weighted.
A bypass cannula was composed of 3 segments. The middle segment was a polyethylene tube having a length of 60 mm and an inner diameter of 3.5 mm. The segments on both ends were similar polyethylene tubes having a length of 100 mm, an inner diameter of 1 mm and an outer diameter of 2 mm, one end of which was pulled to form a tip, with an outer diameter of 1.0 mm (used in inserting into the rat carotid artery or vein), the other end of which was sheathed by a polyethylene tube having a length of 7 mm and an outer diameter of 3.5 mm (thickened, used in inserting into the polyethylene tube of the middle segment). The inner wall of the 3-segment cannula was entirely silylated. The thrombus-wrapped thrombus immobilization screw was placed into the polyethylene tube of the middle segment, and both ends of the tube sheath the thickened ends of two polyethylene tubes. The cannula was filled with a heparin solution in normal saline (50 IU/kg) through the tip end by using an injector and was ready for use.
The left external jugular vein of the rat was separated and penetrated with a suture at the proximal and distal ends respectively, and the distal end was ligated. An incision was carefully made on the exposed left external jugular vein, and the tip of the bypass cannula prepared as described above was inserted into the proximal end of the incision in the left external jugular vein, away from the stem of the thrombus immobilization screw in the middle segment of the bypass cannula (which accommodated the accurately weighed thrombus immobilization screw). A precise amount of heparin in saline (50 IU/kg) was injected through the tip at the other end by using an injector. At this moment, without removing the injector from the polyethylene tube, the tube between the injector and the polyethylene tube was clamped with a hemostatic clamp. The blood flow was stopped by clamping the proximal end of the right common carotid artery with an arterial clip, and an incision was cut carefully across the common carotid artery near the clip. The injector was pulled out of the polyethylene tube through the tip, and the tip of the polyethylene tube was then inserted into the proximal end of the artery incision. Both ends of the bypass cannula were fixed to the artery or vein with #4 sutures.
A scalp needle was used to pass saline solution, a urokinase in saline solution or varied concentrations of the compounds in saline solution through the middle section of the bypass cannula (which accommodated the accurately weighed thrombus immobilization screw) to a position at the proximal vein and away from the thrombus immobilization screw. The artery clip was then removed to allow blood to flow from the artery to the vein through the bypass cannula. A rat arteriovenous bypass thrombolysis model was thus established. […]

[3] = test system: stroke rats; experiment: Therapeutic effect in stroke rats (microthrombus injected into the brain, treated at once): Zealonga score and TTC infarction volume; format: in vivo, SD male rats; settings: for Neural function scores: Zealonga method, 24 hours after awake, n = 9; for Percentage of infarction volume: cerebral infarction, TTC, n = 7
Procedure: SD male rats (280-300 g) were randomly divided to UK positive control group at a dose of 20000 IU/kg, blank control group with normal saline solution, compound control group with PAK at a dose of 5 μmol/kg, and compound 5Ak group at a dose of 1 μmol/kg (high), 0.1 μmol/kg (medium), and 0.01 μmol/kg (low). A 10% chloral hydrate solution (400 mg/kg) was injected intraperitoneally into rats for anesthesia. […] The 10 μl blood drawn was placed in a 1 mL EP vial and kept at RT for 30 min to allow the coagulation of blood and then transferred into a −20° C. refrigerator for 1 hour to allow the formation of solid coagulation. 1 hour later, the blood clots were taken out, 1 mL normal saline was added therein, and then the blood clots were broken into relatively uniform microthrombus by a steel spatula. The microthrombus suspension was then transferred into a 1 mL injector for use. […] The common jugular vein was separated, and then injected with UK at the dose of 20000 IU/kg, normal saline solution, or compound 5Ak at the dose of 1 μmol/kg. The vein was ligated. 3 drops of penicillin was dropped on the wound. The wound was sewed, and animals were waited for awake.
24 hours after the rats were awake, the degree of damage in neural function was evaluated by the Zealonga method. […] The evaluation results were statistically analyzed and subjected to t-test.
After the rats were awake for 24 hours and assessed for their degree of damage in neural function by Zealonga method, they were anesthetized with urethane followed by immediate decapitation and removal of the brain. Brain tissues were kept in a −20° C. refrigerator for 2 hours, and coronal sections of about 2 mm were successively sliced from the prefrontal end for a total of 5 sections and then placed into a 2% TTC solution to incubate without light at 37° C. for 30 min. The color change in brain sections was observed: normal brain tissues were stained red by TTC, while ischemic brain tissues appeared in white. Photographs were taken by using a digital camera and processed with image statistics software, and the volume of infarction in brain tissues and the area of normal brain tissues in the coronal sections were calculated. The ratio of the cerebral infarction volume of each group was statistically calculated and subject to t-test.

[4] = Table 1, control groups 6, PAK, 6 + PAK, dose not given

CC(=O)Oc1ccccc1C(=O)O [Aspirin, aspirin, reference compound]
wet weight of thrombus ([1]; Table 3, Aspirin 9 mg/kg): 46.95 ± 5.21^a mg
wet weight of thrombus ([1]; Table 4, Aspirin 9 mg/kg): 45.62 ± 2.60 mg

CC1(C)N[C@H](C(=O)N[C@@H](CCCCN)C(=O)O)Cc2cc(O)c(O)cc21 [Compound 6, 3S-6,7-dihydroxy-1,1-dimethyl-1,2,3,4-tetrahydro-isoquinoline-3-acyl-Lys, reference compound]
Weight reduction in thrombus [2, 4]: 13.87 ± 3.07^a mg

Pro-Ala-Lys [PAK, reference compound]
Neural function scores ([3]; PAK 5 μmol/kg): 2.20 ± 1.60
Percentage of infarction volume ([3]; PAK 5 μmol/kg): 18.36 ± 7.38%
Weight reduction in thrombus [2, 4]: 14.17 ± 1.84^a mg

urokinase [reference compound]
Neural function scores ([3]; urokinase 20000 IU/kg): 1.30 ± 0.95^a
Percentage of infarction volume ([3]; urokinase 20000 IU/kg): 4.60 ± 2.09%
Weight reduction in thrombus ([2]; Table 1, urokinase 20000 U/kg (1.68 mg/kg) i.v.): 18.95 ± 2.73^a mg
Weight reduction in thrombus ([2]; Table 2, Urokinase 20000 U/kg i.v.): 25.61 ± 3.87 mg

Source: patent US10351594B2, “Process for preparing compounds having triple activities of thrombolysis, antithrombosis, and radical scavenging” (Shanghai Lumosa Therapeutics Co., Ltd., priority 2013, dated 2019)
